Test results published in ChEMBL document CHEMBL5465560, “Selectivity Literature for EUbOPEN Chemogenomic Library” (2024).

Columns and labels:
[1] = target: T1, Mitogen-activated protein kinase 12 (Homo sapiens) (UniProt P53778); test: Selectivity interaction (KinomeScan (DiscoverX)) EUB0001079a MAPK12; conditions: at 1 µM
T1 sequence (whole entry): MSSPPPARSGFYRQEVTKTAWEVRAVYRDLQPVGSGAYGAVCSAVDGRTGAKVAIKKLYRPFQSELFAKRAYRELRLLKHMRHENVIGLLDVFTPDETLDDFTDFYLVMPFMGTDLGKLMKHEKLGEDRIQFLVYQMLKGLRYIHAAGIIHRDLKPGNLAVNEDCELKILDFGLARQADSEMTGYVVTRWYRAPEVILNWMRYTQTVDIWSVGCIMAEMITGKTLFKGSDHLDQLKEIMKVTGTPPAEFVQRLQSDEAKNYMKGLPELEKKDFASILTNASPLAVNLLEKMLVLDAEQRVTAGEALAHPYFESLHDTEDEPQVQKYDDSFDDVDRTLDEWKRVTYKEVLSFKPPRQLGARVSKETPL

[2] = target: SWI/SNF-related matrix-associated actin-dependent regulator of chromatin subfamily A member 2 (Homo sapiens, UniProt P51531); test: Selectivity interaction (Human bromodomain panel (DSF assay)) EUB0000233b SMARCA2
SWI/SNF-related matrix-associated actin-dependent regulator of chromatin subfamily A member 2, sequence (P51531 whole entry): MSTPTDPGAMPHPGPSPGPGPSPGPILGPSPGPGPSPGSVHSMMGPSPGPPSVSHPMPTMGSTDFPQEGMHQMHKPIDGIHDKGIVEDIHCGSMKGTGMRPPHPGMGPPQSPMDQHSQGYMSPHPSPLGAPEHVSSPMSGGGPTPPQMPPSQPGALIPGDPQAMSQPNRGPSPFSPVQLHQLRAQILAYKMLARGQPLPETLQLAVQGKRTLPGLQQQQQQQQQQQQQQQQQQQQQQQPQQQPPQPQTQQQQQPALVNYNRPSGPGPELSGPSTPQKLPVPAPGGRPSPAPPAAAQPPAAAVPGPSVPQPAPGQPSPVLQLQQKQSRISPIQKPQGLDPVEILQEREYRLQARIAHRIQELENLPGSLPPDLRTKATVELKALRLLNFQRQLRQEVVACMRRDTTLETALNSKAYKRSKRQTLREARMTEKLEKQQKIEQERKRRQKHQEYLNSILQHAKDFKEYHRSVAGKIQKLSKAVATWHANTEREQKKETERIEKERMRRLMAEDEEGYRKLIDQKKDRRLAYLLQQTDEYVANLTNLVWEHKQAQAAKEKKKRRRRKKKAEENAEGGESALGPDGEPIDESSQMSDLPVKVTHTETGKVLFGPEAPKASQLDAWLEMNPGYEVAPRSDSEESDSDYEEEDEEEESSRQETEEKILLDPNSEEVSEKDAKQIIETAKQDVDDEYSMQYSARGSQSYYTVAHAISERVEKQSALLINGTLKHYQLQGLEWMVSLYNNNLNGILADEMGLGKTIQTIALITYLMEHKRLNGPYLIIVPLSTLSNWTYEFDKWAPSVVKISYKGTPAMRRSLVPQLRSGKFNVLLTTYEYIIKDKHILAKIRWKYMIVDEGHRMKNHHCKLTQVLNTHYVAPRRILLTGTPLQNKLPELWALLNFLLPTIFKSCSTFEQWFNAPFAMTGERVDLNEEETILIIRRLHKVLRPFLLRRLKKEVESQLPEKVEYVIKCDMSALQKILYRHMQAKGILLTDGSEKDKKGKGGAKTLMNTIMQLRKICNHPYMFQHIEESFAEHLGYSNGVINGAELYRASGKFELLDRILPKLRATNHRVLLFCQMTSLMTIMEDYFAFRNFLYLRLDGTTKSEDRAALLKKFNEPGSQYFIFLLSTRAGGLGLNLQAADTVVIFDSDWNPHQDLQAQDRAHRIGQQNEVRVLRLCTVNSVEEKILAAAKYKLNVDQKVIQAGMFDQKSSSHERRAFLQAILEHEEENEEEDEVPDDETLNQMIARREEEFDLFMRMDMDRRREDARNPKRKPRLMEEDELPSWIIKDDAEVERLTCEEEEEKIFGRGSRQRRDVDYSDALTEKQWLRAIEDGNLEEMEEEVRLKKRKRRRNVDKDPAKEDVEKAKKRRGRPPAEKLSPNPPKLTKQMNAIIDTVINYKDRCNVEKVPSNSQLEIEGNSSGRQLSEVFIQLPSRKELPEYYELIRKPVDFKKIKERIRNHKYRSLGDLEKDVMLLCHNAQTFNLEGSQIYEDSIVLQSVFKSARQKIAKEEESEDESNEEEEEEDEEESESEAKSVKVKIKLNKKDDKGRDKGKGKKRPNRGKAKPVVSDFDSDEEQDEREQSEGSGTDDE

[3] = target: Dual specificity mitogen-activated protein kinase kinase 1 (Homo sapiens, UniProt Q02750); test: Selectivity interaction (Kinase panel (KiNativ target engagement assay in Jurkat cells)) EUB0001635a MAP2K1; format: cell-based; conditions: Selectivity number of off-targets 0.0, Selectivity number of targets 233.0, Source Knowledge https://www.sciencedirect.com/science/article/pii/S2451945619300674?via%3Dihub, at 1 µM
Dual specificity mitogen-activated protein kinase kinase 1, sequence (Q02750 whole entry): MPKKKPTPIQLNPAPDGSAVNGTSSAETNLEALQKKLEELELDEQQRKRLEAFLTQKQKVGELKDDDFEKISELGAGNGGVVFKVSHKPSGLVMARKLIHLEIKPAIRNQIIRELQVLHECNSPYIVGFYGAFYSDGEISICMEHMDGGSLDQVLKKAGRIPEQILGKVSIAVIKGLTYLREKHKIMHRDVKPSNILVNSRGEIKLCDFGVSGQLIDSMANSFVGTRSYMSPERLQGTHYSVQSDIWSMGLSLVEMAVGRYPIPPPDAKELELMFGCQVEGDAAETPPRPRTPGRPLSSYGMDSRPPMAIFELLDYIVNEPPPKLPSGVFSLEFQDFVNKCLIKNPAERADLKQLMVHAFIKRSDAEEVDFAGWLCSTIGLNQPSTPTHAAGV

[4] = target: T2, Serine/threonine-protein kinase Nek1 (Homo sapiens) (UniProt Q96PY6); conditions: at 10 µM
T2 sequence (whole entry): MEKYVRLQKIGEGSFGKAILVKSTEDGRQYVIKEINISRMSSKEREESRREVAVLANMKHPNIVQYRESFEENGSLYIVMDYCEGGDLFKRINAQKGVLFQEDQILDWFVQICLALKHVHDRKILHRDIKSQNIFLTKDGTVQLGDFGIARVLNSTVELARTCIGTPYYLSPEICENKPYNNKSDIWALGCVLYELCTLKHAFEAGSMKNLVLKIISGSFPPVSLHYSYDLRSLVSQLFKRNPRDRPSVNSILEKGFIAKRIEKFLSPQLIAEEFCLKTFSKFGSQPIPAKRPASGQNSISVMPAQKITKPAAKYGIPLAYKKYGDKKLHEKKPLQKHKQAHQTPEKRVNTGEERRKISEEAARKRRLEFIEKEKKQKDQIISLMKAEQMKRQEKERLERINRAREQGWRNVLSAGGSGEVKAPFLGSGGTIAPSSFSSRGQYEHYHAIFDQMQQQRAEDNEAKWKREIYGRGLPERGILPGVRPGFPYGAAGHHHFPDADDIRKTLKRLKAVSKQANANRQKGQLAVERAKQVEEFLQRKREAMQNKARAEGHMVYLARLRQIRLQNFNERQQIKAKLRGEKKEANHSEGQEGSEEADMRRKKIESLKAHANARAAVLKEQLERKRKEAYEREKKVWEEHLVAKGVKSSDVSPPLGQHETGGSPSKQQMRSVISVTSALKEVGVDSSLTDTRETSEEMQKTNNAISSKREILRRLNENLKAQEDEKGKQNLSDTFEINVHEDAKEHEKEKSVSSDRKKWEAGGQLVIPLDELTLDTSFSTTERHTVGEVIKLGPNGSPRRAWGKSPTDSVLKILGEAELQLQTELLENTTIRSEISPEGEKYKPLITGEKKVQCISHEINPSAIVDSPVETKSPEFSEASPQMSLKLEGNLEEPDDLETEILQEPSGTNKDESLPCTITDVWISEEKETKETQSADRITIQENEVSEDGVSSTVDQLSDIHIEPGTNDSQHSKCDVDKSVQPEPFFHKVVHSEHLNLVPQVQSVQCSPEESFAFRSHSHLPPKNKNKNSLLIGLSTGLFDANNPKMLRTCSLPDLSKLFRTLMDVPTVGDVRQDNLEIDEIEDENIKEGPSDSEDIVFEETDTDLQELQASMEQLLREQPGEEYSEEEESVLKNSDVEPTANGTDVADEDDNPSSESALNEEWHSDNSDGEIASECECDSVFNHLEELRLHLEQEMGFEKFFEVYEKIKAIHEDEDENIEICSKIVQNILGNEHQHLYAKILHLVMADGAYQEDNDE

[5] = target: Mitogen-activated protein kinase kinase kinase 8 (Homo sapiens, UniProt P41279); test: Selectivity interaction (Kinase panel (Z-LYTE Assay)) EUB0001632a MAP3K8; conditions: at 10 µM
[6] = target: Serine/threonine-protein kinase 10 (Homo sapiens) (UniProt O94804); test: Selectivity interaction (ActivX KiNativ screen (kinase selectivity in THP-1 cell lysates)) EUB0000639a STK10; format: subcellular; conditions: lysate, at 0.01 µM
Serine/threonine-protein kinase 10 (Homo sapiens), sequence (O94804 whole entry, looked up, canonical isoform): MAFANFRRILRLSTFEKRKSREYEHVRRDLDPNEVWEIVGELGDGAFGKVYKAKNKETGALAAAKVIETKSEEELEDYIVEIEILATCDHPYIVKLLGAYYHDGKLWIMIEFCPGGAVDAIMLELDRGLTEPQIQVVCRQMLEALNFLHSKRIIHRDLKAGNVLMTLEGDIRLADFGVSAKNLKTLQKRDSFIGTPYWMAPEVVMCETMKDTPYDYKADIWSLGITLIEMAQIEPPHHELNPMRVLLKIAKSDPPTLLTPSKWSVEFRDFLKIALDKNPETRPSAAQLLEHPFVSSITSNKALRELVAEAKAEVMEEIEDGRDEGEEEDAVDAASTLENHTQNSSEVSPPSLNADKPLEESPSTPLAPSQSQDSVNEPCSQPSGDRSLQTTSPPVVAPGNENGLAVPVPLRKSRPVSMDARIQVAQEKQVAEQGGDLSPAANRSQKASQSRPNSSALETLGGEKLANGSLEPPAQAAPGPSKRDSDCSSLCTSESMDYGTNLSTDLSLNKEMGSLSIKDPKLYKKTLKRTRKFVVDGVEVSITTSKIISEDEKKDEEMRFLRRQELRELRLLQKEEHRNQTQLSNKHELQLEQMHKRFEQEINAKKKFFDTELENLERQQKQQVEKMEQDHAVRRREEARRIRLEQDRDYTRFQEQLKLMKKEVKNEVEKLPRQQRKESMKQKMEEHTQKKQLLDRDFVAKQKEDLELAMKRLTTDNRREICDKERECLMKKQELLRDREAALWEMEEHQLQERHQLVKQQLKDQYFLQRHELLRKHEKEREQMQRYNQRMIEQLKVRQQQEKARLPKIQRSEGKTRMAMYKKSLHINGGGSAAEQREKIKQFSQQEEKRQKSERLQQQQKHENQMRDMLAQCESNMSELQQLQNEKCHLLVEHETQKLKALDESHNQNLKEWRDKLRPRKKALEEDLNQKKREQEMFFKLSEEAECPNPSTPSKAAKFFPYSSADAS

[7] = test system: Phosphatidylinositol 4,5-bisphosphate 3-kinase catalytic subunit alpha isoform (Homo sapiens), P42336 [E545K]; conditions: at 10 µM
Phosphatidylinositol 4,5-bisphosphate 3-kinase catalytic subunit alpha isoform (Homo sapiens), P42336 [E545K], sequence (P42336 whole entry E545K, canonical isoform): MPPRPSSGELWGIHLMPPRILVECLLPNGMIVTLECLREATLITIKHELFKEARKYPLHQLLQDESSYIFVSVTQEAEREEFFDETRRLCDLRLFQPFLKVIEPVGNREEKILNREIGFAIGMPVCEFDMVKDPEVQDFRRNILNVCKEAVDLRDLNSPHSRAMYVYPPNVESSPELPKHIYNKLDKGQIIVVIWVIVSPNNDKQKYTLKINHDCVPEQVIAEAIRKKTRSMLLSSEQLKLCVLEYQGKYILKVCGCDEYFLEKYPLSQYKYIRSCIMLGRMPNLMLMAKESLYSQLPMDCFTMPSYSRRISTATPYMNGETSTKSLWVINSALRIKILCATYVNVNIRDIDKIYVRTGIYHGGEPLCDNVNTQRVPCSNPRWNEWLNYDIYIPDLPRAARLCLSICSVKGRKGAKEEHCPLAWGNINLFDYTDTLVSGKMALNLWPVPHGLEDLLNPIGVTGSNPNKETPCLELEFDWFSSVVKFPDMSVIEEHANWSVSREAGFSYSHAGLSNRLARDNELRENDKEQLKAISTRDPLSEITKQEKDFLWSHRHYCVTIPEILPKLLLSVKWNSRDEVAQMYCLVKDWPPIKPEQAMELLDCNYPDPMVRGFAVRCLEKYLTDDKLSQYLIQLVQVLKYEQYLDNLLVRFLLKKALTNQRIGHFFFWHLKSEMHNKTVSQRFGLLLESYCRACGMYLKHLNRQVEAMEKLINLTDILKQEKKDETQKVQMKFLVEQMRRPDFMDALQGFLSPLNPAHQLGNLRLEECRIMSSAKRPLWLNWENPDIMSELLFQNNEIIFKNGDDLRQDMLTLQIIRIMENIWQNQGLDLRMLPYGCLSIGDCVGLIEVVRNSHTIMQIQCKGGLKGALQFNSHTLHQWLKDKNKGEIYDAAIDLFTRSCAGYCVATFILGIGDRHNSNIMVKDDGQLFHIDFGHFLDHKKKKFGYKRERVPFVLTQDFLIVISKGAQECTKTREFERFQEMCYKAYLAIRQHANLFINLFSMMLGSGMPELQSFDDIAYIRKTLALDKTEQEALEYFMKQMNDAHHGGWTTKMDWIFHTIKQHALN

[8] = target: T3, Inhibitor of nuclear factor kappa-B kinase subunit epsilon (Homo sapiens) (UniProt Q14164); test: Selectivity interaction (KinomeScan (DiscoverX)) EUB0000045b IKBKE
T3 sequence (whole entry): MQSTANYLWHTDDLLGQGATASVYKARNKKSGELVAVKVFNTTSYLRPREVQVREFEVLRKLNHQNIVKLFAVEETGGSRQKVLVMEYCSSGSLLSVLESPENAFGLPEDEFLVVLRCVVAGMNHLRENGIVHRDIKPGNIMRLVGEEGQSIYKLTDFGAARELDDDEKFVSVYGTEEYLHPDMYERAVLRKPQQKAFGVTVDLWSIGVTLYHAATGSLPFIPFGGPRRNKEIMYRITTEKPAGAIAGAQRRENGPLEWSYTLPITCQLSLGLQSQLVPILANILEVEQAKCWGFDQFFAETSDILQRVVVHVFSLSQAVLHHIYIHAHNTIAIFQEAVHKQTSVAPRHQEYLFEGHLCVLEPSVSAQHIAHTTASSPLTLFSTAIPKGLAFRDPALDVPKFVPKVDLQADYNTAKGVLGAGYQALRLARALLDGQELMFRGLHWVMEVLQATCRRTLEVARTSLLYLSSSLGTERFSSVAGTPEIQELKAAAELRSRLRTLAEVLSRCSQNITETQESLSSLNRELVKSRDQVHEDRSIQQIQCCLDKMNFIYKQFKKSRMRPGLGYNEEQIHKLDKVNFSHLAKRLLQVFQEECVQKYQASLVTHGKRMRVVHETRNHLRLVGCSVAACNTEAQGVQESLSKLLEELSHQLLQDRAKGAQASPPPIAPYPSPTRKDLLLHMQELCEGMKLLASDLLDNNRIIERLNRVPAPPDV

[9] = target: Mitogen-activated protein kinase kinase kinase kinase 5 (Homo sapiens) (UniProt Q9Y4K4); test: Selectivity interaction (ActivX KiNativ screen (ex vivo kinase selectivity in human PBMCs)) EUB0001619a MAP4K5; format: cell-based; conditions: PBMC, at 1 µM
Mitogen-activated protein kinase kinase kinase kinase 5 (Homo sapiens), sequence (Q9Y4K4 whole entry, looked up): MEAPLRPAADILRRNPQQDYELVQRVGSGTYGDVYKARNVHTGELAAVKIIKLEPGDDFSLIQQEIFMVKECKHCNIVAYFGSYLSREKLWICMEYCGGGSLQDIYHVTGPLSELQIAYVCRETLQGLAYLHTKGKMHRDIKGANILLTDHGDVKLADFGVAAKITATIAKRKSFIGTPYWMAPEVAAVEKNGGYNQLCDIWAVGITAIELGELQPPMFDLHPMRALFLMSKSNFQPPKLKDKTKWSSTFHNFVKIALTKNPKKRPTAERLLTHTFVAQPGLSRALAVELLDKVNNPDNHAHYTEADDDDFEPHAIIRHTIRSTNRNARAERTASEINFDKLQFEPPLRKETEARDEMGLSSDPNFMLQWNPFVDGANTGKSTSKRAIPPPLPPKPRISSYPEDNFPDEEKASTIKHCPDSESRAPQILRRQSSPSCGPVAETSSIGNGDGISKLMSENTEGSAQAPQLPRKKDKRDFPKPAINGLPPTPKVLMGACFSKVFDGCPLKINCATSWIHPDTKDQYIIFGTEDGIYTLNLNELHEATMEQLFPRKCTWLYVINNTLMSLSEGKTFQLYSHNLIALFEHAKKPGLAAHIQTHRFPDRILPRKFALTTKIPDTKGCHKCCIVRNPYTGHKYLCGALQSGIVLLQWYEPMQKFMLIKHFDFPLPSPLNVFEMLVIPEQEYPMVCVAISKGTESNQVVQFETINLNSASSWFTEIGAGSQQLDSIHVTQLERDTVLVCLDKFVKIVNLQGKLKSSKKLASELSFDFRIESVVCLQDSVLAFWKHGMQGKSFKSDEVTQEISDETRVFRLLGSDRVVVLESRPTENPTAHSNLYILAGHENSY

SMILES: Nc1cnc(N2CCc3cc(S(=O)(=O)Nc4c(F)cc(Cl)cc4F)cc(N4CCCC4=O)c32)nc1 [TP-020n]
- % of control [1]: 100%

SMILES: CN(C)CCCOc1ccc(-c2cc(NCCCn3cccn3)nc(S(C)(=O)=O)n2)cc1
- dTM [2]: < 2 K

SMILES: C=CC(=O)Nc1ccc(C(=O)Nc2[nH]nc3c2CN(C(=O)N[C@H](CN(C)C)c2ccccc2)C3(C)C)cc1
- % of engagement [3]: -2.4%

SMILES: Cc1cc([C@@H](C)Nc2ccccc2C(=O)O)c2nc(N3CCOCC3)cc(=O)n2c1 [AZD-6482]
- % of control [4]: 85%

SMILES: Cn1cc(-n2cnc3c(NCc4nc5cc(Cl)c(Cl)cc5[nH]4)nc(N4CCOCC4)nc32)cn1
- % of control [5]: 4.18%

SMILES: CC[C@@H]1[C@H](F)C(=O)N[C@@H]1COc1nccc2cc(C(N)=O)c(OC)cc12 [ZIMLOVISERTIB]
- % of inhibition [6]: -34.8%

SMILES: CNC(=O)Nc1ccc(-c2nc(N3CC4CCC(C3)O4)c3cnn(C4CCC5(CC4)OCCO5)c3n2)cc1
- % of control [7]: 11%

SMILES: C=CC(=O)Nc1cc(-n2c(=O)ccc3cnc4ccc(-c5ccc(NS(C)(=O)=O)cc5)cc4c32)ccc1C
- % of control ([8]; at 1 µM): 100%
- % of control ([8]; at 10 µM): 100%

SMILES: N#Cc1cccc(-c2c[nH]c3ncnc(N4CCOCC4)c23)c1
- % of inhibition [9]: 13%
